Results from patent publication US20170329062A1, “OPTICAL FILM AND FLEXIBLE DEVICE USING THE OPTICAL FILM” (SUMITOMO CHEMICAL COMPANY, LIMITED, priority 2016, published 2017).

Columns and labels:
[1] = Molar extinction coefficient of ultraviolet absorbent in 20 mg/L toluene solution; type: physicochemical
Description: (manufactured by JASCO Corporation) Measured Concentration: 20 mg/L Solvent: toluene

[2] = Solubility of ultraviolet absorbent in N,N-dimethylacetamide at 25° C.; type: physicochemical

## CCC(C)(C)c1cc(-n2nc3ccccc3n2)c(O)c(C(C)(C)CC)c1 [Sumisorb 350, 2-(2-hydroxy-3,5-di-tert-pentylphenyl)benzotriazole]
[1]
  Molar extinction coefficient 360 nm: 13,900 L/mol · cm
  Molar extinction coefficient 370 nm: 9,700 L/mol · cm
  Molar extinction coefficient 380 nm: 4,800 L/mol · cm
  Molar extinction coefficient 390 nm: 1,200 L/mol · cm
  Molar extinction coefficient 400 nm: 210 L/mol/cm
  Molar extinction coefficient 420 nm: <50 L/mol/cm
[2]
  Solubility at 25° C. with respect to DMAc: >10 g/100 g-DMAc

## CCCCC(CC)C(=O)OCCOc1ccc(-c2nc(-c3ccccc3)nc(-c3ccccc3)n2)c(O)c1 (stereo not shown) [LA46, 2-(4,6-diphenyl-1,3,5-triazine-2-yl)-5-[2-(2-ethylhexanoyloxy)ethoxy]phenol]
[1]
  Molar extinction coefficient 360 nm: 10000 L/mol/cm
  Molar extinction coefficient 370 nm: 3,000 L/mol · cm
  Molar extinction coefficient 380 nm: 160 L/mol/cm
  Molar extinction coefficient 390 nm: <50 L/mol/cm
  Molar extinction coefficient 400 nm: <30 L/mol/cm
  Molar extinction coefficient 420 nm: <30 L/mol/cm
[2]
  Solubility at 25° C. with respect to DMAc: >10 g/100 g-DMAc

## CC(C)(C)CC(C)(C)c1ccc(O)c(-n2nc3ccccc3n2)c1 [Sumisorb 340, 2-(2-hydroxy-5-tert-octylphenyl)benzotriazole]
[1]
  Molar extinction coefficient 360 nm: 13,100 L/mol · cm
  Molar extinction coefficient 370 nm: 7,700 L/mol · cm
  Molar extinction coefficient 380 nm: 2,200 L/mol · cm
  Molar extinction coefficient 390 nm: 320 L/mol/cm
  Molar extinction coefficient 400 nm: <50 L/mol/cm
  Molar extinction coefficient 420 nm: <50 L/mol/cm
[2]
  Solubility at 25° C. with respect to DMAc: >10 g/100 g-DMAc

## CC(C)(C)CC(C)(C)c1cc(Cc2cc(C(C)(C)CC(C)(C)C)cc(-n3nc4ccccc4n3)c2O)c(O)c(-n2nc3ccccc3n2)c1 [LA31, 2,2′-methylenebis[6-(2H-benzotriazole-2-yl)-4-(1,1,3,3-tetramethylbutyl)phenol]]
[1]
  Molar extinction coefficient 360 nm: 27,300 L/mol · cm
  Molar extinction coefficient 370 nm: 19,800 L/mol · cm
  Molar extinction coefficient 380 nm: 9,000 L/mol · cm
  Molar extinction coefficient 390 nm: 1,400 L/mol · cm
  Molar extinction coefficient 400 nm: <50 L/mol/cm
  Molar extinction coefficient 420 nm: <50 L/mol/cm
[2]
  Solubility at 25° C. with respect to DMAc: >10 g/100 g-DMAc
